Converted amounts (≈) assume the structure as drawn. Like-named read-outs stand apart in the source and are kept apart here.
Assays:
HeLa cells = assay: XTT cytotoxicity assay with HeLa cells; type: cell-based; settings: Homo sapiens, Table 6
Experimental: XTT assay. Cytotoxicity assays were performed in triplicate against HeLa cells (ATCC CCL-2). The IC50 values were calculated by nonlinear regression with GraphPad Prism 5 (San Diego, Calif.).
XTT assay. XTT assays were performed with HeLa cells (ATCC CCL-2) in triplicate, as previously described (Lancet 2008, 371, 1486). IC50 values were determined by nonlinear regression using GraphPad Prism 5 (San Diego, Calif.).

S. aureus ATCC29213 = assay: MIC against MSSA; type: cell-based, Staphylococcus aureus; settings: Staphylococcus aureus; MSSA ATCC 29213; Table 10, unit inferred; read-out: Activity (MIC) against S. aureus
MRSA (NRS70, NRS119) = assay: MIC against MRSA strains; type: cell-based, Staphylococcus aureus; settings: Staphylococcus aureus, NRS70 strain; Table 3 (SAR^2 and SAR^3); read-out: MIC MRSA
C. difficile = assay: MIC by broth microdilution against C. difficile strains; type: cell-based, Clostridioides difficile; settings: for MIC: Clostridioides difficile
E. faecium NCTC7171 = assay: MIC against E. faecium; type: cell-based, Enterococcus faecium; settings: Enterococcus faecium, NCTC7171; E. faecium NCTC 7171; Table 10, unit inferred; read-out: Activity (MIC) against E. faecium
[1] = Pharmacokinetics study in mice (plasma and feces levels); type: in vivo; settings: for Conc. feces/MIC: dose 20 mg · kg^−1; for concentration at 8 h: female, CD-1, mouse, single oral gavage, dose 20 mg · kg^−1, feces collected after 8 h, read-out: Drug concentration in fecal samples (mg kg^−1 feces)
Experimental: Pharmacokinetics (PK) study. Mice (n=2 per time point) were given a single 100 μL solution of 5 mg/mL of compound 1 (equivalent to 20 mg/kg). Terminal blood was collected in heparinized syringes by cardiac puncture at 30 min, 1 h, 2 h, 4 h, and 8 h. The two mice at the 8-h time point were place in metabolism cages for collection of feces. Compound 1 was dissolved in 5% DMSO/95% water with 96 mg/mL of sodium bicarbonate. Blood was centrifuged at 1,000 g for 20 min at 4° C. and plasma was separated and stored at −80° C. until analysis. A 45-μL aliquot of plasma was mixed with 5 μL of H2O:ACN (1:1) and was quenched with 100 μL of acetonitrile containing 20 μM of internal standard (compound 10). The sample was centrifuged at 21,000 g for 15 min at 4° C. to precipitate the proteins, and the resulting supernatant was analyzed by UPLC-TQD detector using multiple-reaction monitoring (MRM). Calibration curves for compound 1 were prepared from 0 to 102.4 μM using a control mouse plasma (50 μL). Peak area ratios relative to internal standard and linear regression was used from which the concentrations in plasma samples from the PK study were determined.
An average of 250 mg of feces were collected at 8 h from two mice, and subsequently homogenized with 6 times the feces volume (1,500 μL of H2O:ACN 1:1) using a Bullet Blender (Next Advance, Inc., Troy, N.Y.). The homogenate was centrifuged at 21,000 g for 5 min. The fecal supernatant (72 μL) was mixed with 8 μL of a solution of H2O:ACN (1:1) and 40 μL of 50 μM of the internal standard in ACN with 0.5% formic acid. A calibration curve was prepared from 0 μM to 102.4 μM in control mouse feces. Plasma and feces were analyzed on a Waters TQD tandem quadrupole detector (Waters Corporation, Milford, Mass.) using a YMC-Triart C18 100 mm×2.0 mm column (3μ, YMC Co. Ltd, Kyoto, Japan). The chromatographic conditions consisted of elution with 30% H2O/70% ACN containing 0.10% formic acid for 5 min at a flow rate 0.5 mL/min. Mass Spectrometry acquisition was performed in the positive electrospray ionization mode with MRM. The capillary, cone, extractor and RF lens voltages were set at 2.8 kV, 40 V, 1 V and 0.1 V, respectively. The desolvation and cone gas (nitrogen) flow rates were 650 L/h and 50 L/h, respectively. The source temperature was set at 150° C. The desolvation temperature was 350° C. The MRM transitions used were 459.4→254.0 for compound 1, and 294.8→133.5 for the internal standard.
Animals. Female C57BL/6 mice weighing 18-20 g and 6-8 weeks of age were used for the efficacy study (Jackson, Bar Harbor, Me.). Female CD-1 mice (24-31 g and 7-8 weeks of age) were used for the PK study. They were housed in groups of five mice in sterile polycarbonate shoeboxes with bedding consisting of ¼-inch corncob (The Andersons Ind., Maumee, Ohio) and Alpha-Dri (Shepherd Specialty Papers, Inc., Richland, Mich.). Mice were maintained on a 12-h light/dark cycle at 72° F. and were given Teklad 2918 irradiated extruded rodent diet and water ad libitum. All procedures were performed in accordance with and approved by the University of Notre Dame Institutional Animal Care and Use Committee.
Pharmacokinetics (PK) Studies. Compounds 4, 87, 107, and 108 were dissolved in 10% DMSO, 25% propylene glycol, 15% Tween 80 and 50% water at concentrations of 5 mg/mL or 10 mg/mL. Compound 116 was dissolved in 5% DMSO, 95% water with 96 mg/mL of sodium bicarbonate. Mice (n=2 per time point) were given a single 100 μL oral gavage of the test compound (equivalent to either 10 mg/kg and/or 20 mg/kg), and terminal blood was collected in heparinized syringes by cardiac puncture at 30 min, 1 h, 2 h, 4 h, and 8 h. An average of 250 mg of feces were collected after 8 h from two mice housed in metabolism cages in each group for further analysis. Blood was centrifuged at 1000 g for 2 min at 4° C. to obtain plasma. Plasma and fecal samples were stored at −80° C. until analysis. […]

C. difficile ATCC43255 = assay: Macromolecular synthesis assay (radioactive precursor incorporation); type: cell-based, Clostridioides difficile; settings: 0.5×MIC, N-acetyl-d-[6-^3H]glucosamine incorporation, 120 min
Experimental: FIG. 2. Mechanism of action of compound 1. (A) Macromolecular biosynthesis assays: Compound 1 was incubated with C. difficile ATCC43255 at 0.5×MIC. […] The incubation time was 60 min for DNA, 120 min for peptidoglycan synthesis and RNA, and 180 min for protein synthesis. (B-G) Imaging of C. difficile […] vegetative cells (logarithmic growth) by scanning electron microscopy.
The mechanism of action of 1 was investigated using macromolecular synthesis assays. These assays measure the incorporation of radioactive precursors ([2,8-^3H]-adenine, [5,6-^3H]-uridine, 1-[3,4,5-^3H(N)]-leucine, and N-acetyl-d-[6-^3H]glucosamine) respectively into DNA, RNA, protein, and peptidoglycan. […] This analysis visualizes the cell wall as the outermost layer of the cell envelope of Gram-positive bacteria such as C. difficile.
Macromolecular synthesis assay. The macromolecular synthesis assay was performed by established methods. […] The radiolabeled precursors were purchased from Perkin Elmer (Waltham, Mass., USA).

[2] = ATCC43255, ATCC 43255, ribotype 087, Table 3 (SAR^2 and SAR^3), read-out: MIC C. difficile
[3] = MIC MRSA/MIC C. difficile, Table 3
[4] = C. difficile, Table 8, read-out: MIC

Structure (SMILES)	IC50 (HeLa cells)	MIC (S. aureus ATCC29213)	MIC (MRSA (NRS70, NRS119))	MIC (C. difficile; [2])	Selectivity (C. difficile; [3])	MIC (E. faecium NCTC7171)	Conc. feces/MIC [1]	concentration at 8 h [1]	MIC (C. difficile; [4])	Selectivity (C. difficile; Table 8)	MIC (C. difficile; ATCC43255, C. difficile ATCC 43255, read-out: MIC against C. difficile)	inhibition of cell-wall peptidoglycan biosynthesis (C. difficile ATCC43255)	MIC (C. difficile; ATCC43255, C. difficile ATCC43255, FIG. 2 legend, read-out: MIC of positive controls)
O=C(Nc1ncco1)c1cc(-c2ccc(F)cc2)ccn1 [Compound 89, 4-(4-Fluorophenyl)-N-(oxazol-2-yl)picolinamide]	170 ± 2.5 µg/mL (≈ 601 µM)	≥ 128 µg/mL	64 µg/mL (≈ 226 µM)	1 µg/mL (≈ 3.53 µM)	64	≥ 128 µg/mL	–	–	–	–	–	–	–
O=C(Nc1ncco1)c1cc(-c2ccc(F)c(F)c2)ccn1 [Compound 90, 4-(3,4-Difluorophenyl)-N-(oxazol-2-yl)picolinamide]	> 64 µg/mL	≥ 128 µg/mL	128 µg/mL (≈ 425 µM)	0.5 µg/mL (≈ 1.66 µM)	256	≥ 128 µg/mL	–	–	–	–	–	–	–
O=C(Nc1ncco1)c1cc(-c2ccc(Cl)c(F)c2)ccn1 [Compound 92, 4-(4-Chloro-3-fluorophenyl)-N-(oxazol-2-yl)picolinamide]	> 256 µg/mL	≥ 128 µg/mL	128 µg/mL (≈ 403 µM)	0.25 µg/mL (≈ 0.787 µM)	512	≥ 128 µg/mL	–	–	–	–	–	–	–
O=C(Nc1ncco1)c1cc(-c2cccc(F)c2)ccn1 [Compound 93, 4-(3-Fluorophenyl)-N-(oxazol-2-yl)picolinamide]	> 64 µg/mL	≥ 128 µg/mL	64 µg/mL (≈ 226 µM)	0.5 µg/mL (≈ 1.77 µM)	128	≥ 128 µg/mL	–	–	–	–	–	–	–
O=C(Nc1ncco1)c1cc(-c2cc(F)cc(F)c2)ccn1 [Compound 94, 4-(3,5-Difluorophenyl)-N-(oxazol-2-yl)picolinamide]	40.1 ± 1.6 µg/mL (≈ 133 µM)	≥ 128 µg/mL	64 µg/mL (≈ 212 µM)	1 µg/mL (≈ 3.32 µM)	64	≥ 128 µg/mL	–	–	–	–	–	–	–
O=C(Nc1ncco1)c1cc(-c2ccc(C(F)(F)F)cc2)ccn1 [Compound 97, N-(Oxazol-2-yl)-4-(4-(trifluoromethyl)phenyl)picolinamide]	135 ± 8.6 µg/mL (≈ 405 µM)	≥ 128 µg/mL	128 µg/mL (≈ 384 µM)	0.25 µg/mL (≈ 0.75 µM)	512	≥ 128 µg/mL	–	–	–	–	–	–	–
O=C(Nc1ncco1)c1cc(-c2cccc(C(F)(F)F)c2)ccn1 [Compound 98, N-(Oxazol-2-yl)-4-(3-(trifluoromethyl)phenyl)picolinamide]	115 ± 2.2 µg/mL (≈ 344 µM)	≥ 128 µg/mL	64 µg/mL (≈ 192 µM)	0.5 µg/mL (≈ 1.5 µM)	128	≥ 128 µg/mL	–	–	–	–	–	–	–
O=C(Nc1ncco1)c1cc(Oc2cccc(F)c2)ccn1 [Compound 107, 4-(3-Fluorophenoxy)-N-(oxazol-2-yl)picolinamide]	88 ± 2.3 µg/mL (≈ 294 µM)	64 µg/mL (≈ 214 µM)	–	–	–	64 µg/mL (≈ 214 µM)	2.4	2400 ng/g	1 µg/mL (≈ 3.34 µM)	>256	–	–	–
O=C(Nc1ncco1)c1cc(Oc2ccc(SC(F)(F)F)cc2)ccn1 [Compound 110, N-(Oxazol-2-yl)-4-(4-((trifluoromethyl)thio)phenoxy)picolinamide]	91.6 ± 1.3 µg/mL (≈ 240 µM)	≥ 128 µg/mL	–	–	–	≥ 128 µg/mL	–	–	–	–	–	–	–
COC(=O)c1ccc2oc(NC(=O)c3cc(Oc4ccc(F)c(F)c4)ccn3)nc2c1 [Compound 114, Methyl 2-(4-(3,4-difluorophenoxy)picolinamido)benzo[d]oxazole-5-carboxylate]	53.3 ± 3.6 µg/mL (≈ 125 µM)	128 µg/mL (≈ 301 µM)	–	–	–	≥ 128 µg/mL	–	–	–	–	–	–	–
O=C([O-])c1ccc2oc(NC(=O)c3cc(Oc4ccc(F)c(F)c4)ccn3)nc2c1.[Na+] [Compound 116, Sodium 2-(4-(3,4-difluorophenoxy)picolinamido)benzo[d]oxazole-5-carboxylate]	> 128 µg/mL	128 µg/mL	–	–	–	128 µg/mL	7.4	3700 ng/g	0.5 µg/mL	128	0.5 µg/mL	–	–
O=C(O)c1ccc2nc(NC(=O)c3cc(-c4ccc(OC(F)(F)F)cc4)ccn3)oc2c1 [Compound 118, 2-(4-(4-(Trifluoromethoxy)phenyl)picolinamido)benzo[d]oxazole-6-carboxylic acid]	79.9 ± 6.3 µg/mL (≈ 180 µM)	8 µg/mL (≈ 18 µM)	–	–	–	64 µg/mL (≈ 144 µM)	–	–	–	–	–	–	–
Cc1onc(-c2ccccc2)c1C(=O)N[C@@H]1C(=O)N2[C@@H]1SC(C)(C)[C@@H]2C(=O)O [oxacillin, reference compound]	–	–	–	–	–	–	–	–	–	–	–	51±1%	8 µg/mL

— patent US20230271950A1, “ANTIBACTERIAL PICOLINAMIDE COMPOUNDS” (University of Notre Dame Du Lac, priority 2020, published 2023)
